Source: patent US20120027816A1, “HIGHLY PURE ELETRIPTAN OR A PHARMACEUTICALLY ACCEPTABLE SALT THEREOF SUBSTANTIALLY FREE OF ELETRIPTAN N-OXIDE IMPURITY” (ACTAVIS GROUP PTC EHF, priority 2009, published 2012)
Where a name gives a salt, the structure may show the parent alone.

Assay: Particle Size Distribution by laser diffraction (Malvern Master Sizer 2000)
Type: physicochemical
Conditions: eletriptan hydrobromide obtained by the Example 4 procedure, unmilled, cumulative volume size distribution
Procedure: As used herein, “Particle Size Distribution (PSD)” means the cumulative volume size distribution of equivalent spherical diameters as determined by laser diffraction in Malvern Master Sizer 2000 equipment or its equivalent using a particle size method containing Tegiloxan medium with sonication time of 10 seconds and stirrer speed of 2500 rpm. “Mean particle size distribution, i.e., (D50)” correspondingly, means the median of said particle size distribution. The important characteristics of the PSD are the (D90), which is the size, in microns, below which 90% of the particles by volume are found, and the (D50), which is the size, in microns, below which 50% of the particles by volume are found. Thus, a D90 or d(0.9) of less than 300 microns means that 90 volume-percent of the particles in a composition have a diameter less than 300 microns.

| SMILES | Particle Size Distribution d(0.1) | Particle Size Distribution d(0.5) | Particle Size Distribution d(0.9) |
| --- | --- | --- | --- |
| CN1CCC[C@@H]1Cc1c[nH]c2ccc(CCS(=O)(=O)c3ccccc3)cc12 [Example 4C, eletriptan hydrobromide] | 13.58 microns | 27.25 microns | 50.91 microns |
| CN1CCC[C@@H]1Cc1c[nH]c2ccc(CCS(=O)(=O)c3ccccc3)cc12 [Example 4B, eletriptan hydrobromide] | 9.99 microns | 20.85 microns | 42.83 microns |
| CN1CCC[C@@H]1Cc1c[nH]c2ccc(CCS(=O)(=O)c3ccccc3)cc12 [Example 4A, eletriptan hydrobromide] | 12.07 microns | 27.69 microns | 53.92 microns |
